Assay results reported in paper PMC12035797, “Peptidomimetics Activating the Proteasome: A New Perspective for Parkinson’s Treatment” (Journal of Medicinal Chemistry, 2025).
Entries after “also recorded” stand apart in the source; their conditions may differ. Where a SMILES comes first, the peptide text is derived from it. [ ]: non-standard residue; d: D form. N(4-MeOBn)Gly = COc1ccc(CNCC(=O)O)cc1; NMeR = CN[C@@H](CCCNC(=N)N)C(=O)O; Gly(N-CH2CH2OH) = O=C(O)CNCCO; NMeS = CN[C@@H](CO)C(=O)O; Nlys = NCCCCNCC(=O)O

Columns and labels:
[1] = Stability of the compounds in human plasma (UHPLC); assay type: in vitro ADME; settings: 37 °C, 30 min
Method: We tested the proteolytic stability of the obtained peptidomimetics by incubating them with human plasma at 37 °C for 30 min. The process was monitored by UHPLC. Using mass spectrometry, the proteolytic degradation sites were determined (Figure 1B). […] Apparently, the modifications made the modulators considerably less susceptible to the action of proteases present in the plasma.
The modulators were incubated with human serum (Merck, Darmstadt, Germany) at 37 °C for 30 min. The compounds were dissolved in water, and their final concentration was 200 μM. Every 5 min, samples were taken from the incubated solution, and the reaction was stopped with 6% trichloroacetic acid (TCA) added to the sample in a 1:1 (v/v) ratio. Next, the samples were centrifuged for 10 min at 4 °C and 14,000 rpm. The supernatant was subjected to HPLC and MS analyses. The progress of proteolytic degradation of modulators was monitored using a UHPLC chromatograph (Shimadzu, Tokyo, Japan) with a Kinetex analytical column 100 mm × 2.1 mm, 2.6 μm, 100 Å (Phenomenex, Torrance, CA, USA) with UV detection at a wavelength of 223 nm. The degree of degradation was estimated based on the area of the peaks corresponding to the starting materials. In order to identify peptide fragments resulting from degradation, analysis was performed using an Autoflex maX MALDI TOF mass spectrometer (Bruker, […]). All experiments were performed in at least three independent replicates.

human 20S proteasome = tested on: T1, human 20S proteasome; assay: h20S proteasome activity probed with FRET-type Dabcyl-EDANS substrate; assay type: biochemical; settings: 15 μM Dabcyl-EDANS, 1.0-50 μM modulator
T1 construct: human proteasome isolated from erythrocytes; from tissue; host or cells: human erythrocytes
Source text: (§1) To assess the influence of substitutions increasing proteolytic stability on the modulators’ capacity to stimulate chymotrypsin-like, trypsin-like, and caspase-like activity of h20S, we used classic fluorogenic substrates: Suc-LLVY-AMC, Boc-LRR-AMC, and Z-LLE-AMC, respectively. To confirm the observed stimulating capacity, we also conducted assays using a FRET-type reporter peptide with a sequence consisting of 11 residues (Lys(Dabcyl)-[…]EDANS)-Gly).[27] As we checked, the activated 20S hydrolyzed this substrate after more than one residue (Lys, Gly, and Glu), which makes it a probe better reflecting the concerted action of the proteasome’s three peptidases. […] The discrepancy in the level of activation was mainly due to the greater sensitivity of the FRET substrate, as it is not digested, unlike the AMC-based probes, by the latent proteasome, which results in greater differences in fluorescence relative to the controls. […] The ability to affect individual peptidases of the proteasome in different ways is most likely related to the allosteric mechanism of action of the modulators. Binding at a site distant from the catalytic compartment may result in greater diversity in the pathways by which the signal reaches active sites and differential effects of that signal on each peptidase.
(§2) The effect of all synthesized peptidomimetics on the catalytic activity of the proteasome was tested using a human proteasome isolated from erythrocytes. Suc-LLVY-AMC, Boc-LRR-AMC, and Z-LLE-AMC fluorogenic substrates (Bachem, Bubendorf, Switzerland) were used for assessment of the chymotrypsin-, trypsin-, and caspase-like activities, respectively. A homemade FRET-type substrate Dabcyl-EDANS (Lys(Dabcyl)-[…]EDANS)-Gly)[26] was used as an additional probe. Stock solutions of the substrates and tested peptidomimetics were prepared in dimethyl sulfoxide (DMSO), ensuring that the final concentration of DMSO in all samples remained consistent at 2%. The small fluorogenic substrates were used at a final concentration of 100 μM, while Dabcyl-EDANS was prepared at a final concentration of 15 μM. Modulators were tested in concentrations ranging from 1.0 to 50 μM, with compounds containing TAT or 6R sequences tested at lower concentrations ranging from 0.5 to 10 μM. Activity tests were conducted in 96-well plates using 50 mM Tris/HCl, pH 8.0, as an assay buffer. The final concentration of h20S proteasome was adjusted to 0.002 mg/mL (2.8 nM). The fluorescence of released aminomethylcoumarin (AMC) was monitored at 460 nm (λex was 380 nm), while the hydrolysis of Dabcyl-EDANS was detected by measuring emission at 493 nm (λex was set at 335 nm). Fluorescence measurements were taken continuously every 2 min over a 60 min period at 37 °C using a Tecan Infinite M200Pro spectrofluorometer (Tecan Trading AG, Männedorf, Switzerland). All activity assays were performed in at least three independent replicates. The relative activity was calculated in relation to the catalytic activity of the vehicle (DMSO)-treated latent proteasome, which was regarded as 100%. Statistical analysis was performed using the one-way ANOVA followed by Tukey’s post-hoc test. P-value <0.05 was considered statistically significant.

[2] = tested on: T2, human 20S proteasome, ChT-L peptidase; assay: Chymotrypsin-like (ChT-L) activity of h20S probed with Suc-LLVY-AMC; assay type: biochemical
T2 construct: human proteasome isolated from erythrocytes; from tissue; host or cells: human erythrocytes
Method: (§3) To assess the influence of substitutions increasing proteolytic stability on the modulators’ capacity to stimulate chymotrypsin-like, trypsin-like, and caspase-like activity of h20S, we used classic fluorogenic substrates: Suc-LLVY-AMC, Boc-LRR-AMC, and Z-LLE-AMC, respectively.
as §2, with “Modulators were tested in concentrations ranging from 1.0 to 50 μM, with compounds containing TAT or 6R sequences tested at lower concentrations ranging from 0.5 to 10 μM.” left out

[3] = tested on: T3, human 20S proteasome, T-L peptidase; assay: Trypsin-like (T-L) activity of h20S probed with Boc-LRR-AMC; assay type: biochemical; settings: 100 μM Boc-LRR-AMC
T3 construct: human proteasome isolated from erythrocytes; from tissue; host or cells: human erythrocytes
Method: as §3
as §2, with “Modulators were tested in concentrations ranging from 1.0 to 50 μM, with compounds containing TAT or 6R sequences tested at lower concentrations ranging from 0.5 to 10 μM.” left out

[4] = tested on: T4, human 20S proteasome, C-L peptidase; assay: Caspase-like (C-L) activity of h20S probed with Z-LLE-AMC; assay type: biochemical; settings: 100 μM Z-LLE-AMC
T4 construct: human proteasome isolated from erythrocytes; from tissue; host or cells: human erythrocytes
Source text: as §1, §2

[5] = 100 μM Suc-LLVY-AMC, whole concentration range

| SMILES | proteolytic stability in human plasma [1] | h20S stimulating capacity, Dabcyl-EDANS (human 20S proteasome) | ChT-L stimulating capacity, Suc-LLVY-AMC [2, 5] | T-L stimulating capacity, Boc-LRR-AMC [3] | C-L stimulating capacity, Z-LLE-AMC [4] | ChT-L stimulating capacity, Suc-LLVY-AMC ([2]; at 1 μM concentration) | ChT-L stimulating capacity, Suc-LLVY-AMC ([2]; at higher concentrations) | remaining at 0.5 h ([1]; human, plasma, UHPLC, read-out: amount of compound remaining after incubation with human plasma) |
| --- | --- | --- | --- | --- | --- | --- | --- | --- |
| C[C@@H](O)[C@H](NC(=O)[C@H](Cc1ccccc1)NC(=O)[C@H](Cc1ccc(O)cc1)NC(=O)CNCCCCN)C(=O)NCC(=O)N[C@@H](CO)C(=O)N[C@@H](CCCCN)C(=O)N[C@@H](CC(=O)O)C(=O)N[C@@H](Cc1ccc(O)cc1)C(=O)N[C@@H](CCCNC(=N)N)C(=O)N[C@@H](CCCNC(=N)N)C(=O)N[C@@H](Cc1ccc(O)cc1)C(=O)N[C@@H](Cc1ccc(O)cc1)C(=O)N[C@@H](CO)C(=O)O [compound 2a] (H-[Nlys]YFTGSKDYRRYYS-OH) | very stable | most effective h20S stimulators; also recorded: effective activator | most effective h20S stimulators |  |  |  |  |  |
| COc1ccc(CN(CC(=O)N[C@@H](Cc2ccccc2)C(=O)N[C@H](C(=O)NCC(=O)N[C@@H](CO)C(=O)N[C@@H](CCCCN)C(=O)N[C@@H](CC(=O)O)C(=O)N[C@@H](Cc2ccc(O)cc2)C(=O)N[C@@H](CCCNC(=N)N)C(=O)N[C@@H](CCCNC(=N)N)C(=O)N[C@@H](Cc2ccc(O)cc2)C(=O)N[C@@H](Cc2ccc(O)cc2)C(=O)N[C@@H](CO)C(=O)O)[C@@H](C)O)C(=O)[C@@H](N)CCCCN)cc1 [2d] (H-K[N(4-MeOBn)Gly]FTGSKDYRRYYS-OH) |  | comparable stimulatory capacity |  | comparable stimulatory capacity | comparable stimulatory capacity | same moderate efficiency | as inefficient as 2e |  |
| C[C@@H](O)[C@H](NC(=O)[C@H](Cc1ccccc1)NC(=O)[C@H](Cc1ccc(O)cc1)NC(=O)[C@@H](N)CCCCN)C(=O)NCC(=O)N[C@@H](CO)C(=O)N[C@@H](CCCCN)C(=O)N[C@@H](CC(=O)O)C(=O)N[C@@H](Cc1c[nH]c2ccccc12)C(=O)N(C)[C@@H](CCCNC(=N)N)C(=O)N(C)[C@@H](CO)C(=O)N[C@@H](Cc1ccc(O)cc1)C(=O)N[C@@H](Cc1ccc(O)cc1)C(=O)N[C@@H](CO)C(=O)O [compound 1d] (H-KYFTGSKDW[NMeR][NMeS]YYS-OH) |  | reached stimulation levels equal to those of the best activators; also recorded: less strongly than 1 | lower capacity of activating h20S | poor activator | moderate activator |  |  | < 30% |
| C[C@@H](O)[C@H](NC(=O)[C@H](Cc1ccccc1)NC(=O)[C@H](Cc1ccc(O)cc1)NC(=O)CNCCCCN)C(=O)NCC(=O)N[C@@H](CO)C(=O)N[C@@H](CCCCN)C(=O)N[C@@H](CC(=O)O)C(=O)N[C@@H](Cc1c[nH]c2ccccc12)C(=O)N[C@@H](CCCNC(=N)N)C(=O)N(CCO)CC(=O)N[C@@H](Cc1ccc(O)cc1)C(=O)N[C@@H](Cc1ccc(O)cc1)C(=O)N[C@@H](CO)C(=O)O [1c] (H-[Nlys]YFTGSKDWR[Gly(N-CH2CH2OH)]YYS-OH) | most stable | less strongly than 1 | lower capacity of activating h20S |  |  |  |  |  |

More lines, now with the values ahead:

| proteolytic stability in human plasma [1] | h20S stimulating capacity, Dabcyl-EDANS (human 20S proteasome) | ChT-L stimulating capacity, Suc-LLVY-AMC [2, 5] | T-L stimulating capacity, Boc-LRR-AMC [3] | C-L stimulating capacity, Z-LLE-AMC [4] | ChT-L stimulating capacity, Suc-LLVY-AMC ([2]; at 1 μM concentration) | ChT-L stimulating capacity, Suc-LLVY-AMC ([2]; at higher concentrations) | remaining at 0.5 h ([1]; human, plasma, UHPLC, read-out: amount of compound remaining after incubation with human plasma) | SMILES |
| --- | --- | --- | --- | --- | --- | --- | --- | --- |
| most stable | least effective stimulants | least effective stimulants | weakest activators | weakest activators |  |  |  | COc1ccc(CN(CC(=O)N[C@@H](CCCNC(=N)N)C(=O)N[C@@H](CCCNC(=N)N)C(=O)N[C@@H](Cc2ccc(O)cc2)C(=O)N[C@@H](Cc2ccc(O)cc2)C(=O)N[C@@H](CO)C(=O)O)C(=O)[C@H](CC(=O)O)NC(=O)[C@H](CCCCN)NC(=O)[C@H](CO)NC(=O)CNC(=O)[C@@H](NC(=O)[C@H](Cc2ccccc2)NC(=O)CN(Cc2ccc(OC)cc2)C(=O)[C@@H](N)CCCCN)[C@@H](C)O)cc1 [2f] (H-K[N(4-MeOBn)Gly]FTGSKD[N(4-MeOBn)Gly]RRYYS-OH) |
|  | least effective stimulants | least effective stimulants | weakest activators | weakest activators |  |  |  | COc1ccc(CN(CC(=O)N[C@@H](CCCNC(=N)N)C(=O)N[C@@H](CCCNC(=N)N)C(=O)N[C@@H](Cc2ccc(O)cc2)C(=O)N[C@@H](Cc2ccc(O)cc2)C(=O)N[C@@H](CO)C(=O)O)C(=O)[C@H](CC(=O)O)NC(=O)[C@H](CCCCN)NC(=O)[C@H](CO)NC(=O)CNC(=O)[C@@H](NC(=O)[C@H](Cc2ccccc2)NC(=O)[C@H](Cc2ccc(O)cc2)NC(=O)[C@@H](N)CCCCN)[C@@H](C)O)cc1 [2e] (H-KYFTGSKD[N(4-MeOBn)Gly]RRYYS-OH) |
